“And” between values parts separate entries of the source, which are not always exact repeats. Equal entries are not always repeated. Inconclusive results and toxic doses are left out.

The assay concerns P388 leukemia ip, CD2F1 mice, survival T/C. Description: NCI In Vivo Anticancer Drug Screen. Data for tumor model P388 Leukemia (intraperitoneal) in CD2F1 (CDF1) mice. Particulars: endpoint: median survival time, higher = longer survival. The method in brief: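 Mice carrying the transplanted tumor received test compound or vehicle. Survival was recorded in each group, and the value is the treated-group measurement divided by that of the vehicle-treated control group.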

The mark [1] stands for this setting: dose: 60.0 mg/kg/injection, schedule: Q01DX005 (ip), vehicle: saline with Tween-80.
Where [2] appears, read: dose: 120.0 mg/kg/injection, schedule: Q01DX005 (ip), vehicle: saline with Tween-80.
[3] abbreviates: dose: 240.0 mg/kg/injection, schedule: Q01DX005 (ip), vehicle: saline with Tween-80.
Setting [4] is: dose: 50.0 mg/kg/injection, schedule: Q01DX009 (ip), vehicle: saline with Tween-80.
[5] abbreviates: dose: 100.0 mg/kg/injection, schedule: Q01DX009 (ip), vehicle: saline with Tween-80.
[6] abbreviates: dose: 12.5 mg/kg/injection, schedule: Q01DX009 (ip), vehicle: saline.
The mark [7] stands for this setting: dose: 25.0 mg/kg/injection, schedule: Q01DX009 (ip), vehicle: saline.
Where [8] appears, read: dose: 50.0 mg/kg/injection, schedule: Q01DX005 (ip), vehicle: saline with Tween-80.
[9] abbreviates: dose: 50.0 mg/kg/injection, schedule: Q01DX005 (ip), vehicle: Klucel (hydroxypropylcellulose) (HPC).
[10] abbreviates: dose: 100.0 mg/kg/injection, schedule: Q01DX005 (ip), vehicle: Klucel (hydroxypropylcellulose) (HPC).
Setting [11] is: dose: 200.0 mg/kg/injection, schedule: Q01DX005 (ip), vehicle: Klucel (hydroxypropylcellulose) (HPC).
The mark [12] stands for this setting: dose: 50.0 mg/kg/injection, schedule: Q01DX009 (ip), vehicle: saline.
Where [13] appears, read: dose: 100.0 mg/kg/injection, schedule: Q01DX009 (ip), vehicle: saline.

Take `CCOCCOCCOC(C)Oc1ccc(Cl)cc1C` (stereo not given): the T/C is 90 % of control under setting [1], 92 % of control under setting [2] and 98 % of control under setting [3].
In the case of `Cc1ccc(S(=O)(=O)NC(=O)OC23COCN2COC3)cc1`, the T/C is, setting by setting: under setting [4], 117 % of control; under setting [5], 122 % of control.
As to `CCOC(=O)c1c(C)[nH]c(-c2ccccc2)c1NS(=O)(=O)c1ccc(N)cc1`, the T/C by setting is: under setting [1], 93 % of control; under setting [2], 94 % of control.
For the molecule `Cc1nc(C)n2c(C)nnc2c1C`, the T/C reads like this: (dose: 25.0 mg/kg/injection, schedule: Q04DX003 (ip), vehicle: saline) 101 % of control; (dose: 50.0 mg/kg/injection, schedule: Q04DX003 (ip), vehicle: saline) 111 % of control; (dose: 100.0 mg/kg/injection, schedule: Q04DX003 (ip), vehicle: saline) 109 % of control.
For `N#CC(C#N)=CNCC1CC1`, the T/C was 102 % of control (dose: 15.0 mg/kg/injection, schedule: Q01DX005 (ip), vehicle: Klucel (hydroxypropylcellulose) (HPC)); 100 % of control (dose: 30.0 mg/kg/injection, schedule: Q01DX005 (ip), vehicle: Klucel (hydroxypropylcellulose) (HPC)); 98 % of control and 99 % of control (dose: 60.0 mg/kg/injection, schedule: Q01DX005 (ip), vehicle: Klucel (hydroxypropylcellulose) (HPC)).
`COc1cc(C2C(C(C)=O)=C(C)Oc3cc4c(cc32)OCO4)cc(OC)c1OC` (stereo not given): the T/C was 89 % of control (dose: 30.0 mg/kg/injection, schedule: Q01DX005 (ip), vehicle: saline with Tween-80); 87 % of control and 89 % of control under setting [1]; 90 % of control under setting [2]; 87 % of control under setting [3].
On to `COc1cc(CCN(C)C)c([N+](=O)[O-])cc1OC`, for which the T/C by setting is: under setting [6], 90 % of control; under setting [7], 89 % of control.
Regarding `CC(=O)OCc1ccc(O)c(C=O)c1`, the T/C runs as follows: (dose: 12.5 mg/kg/injection, schedule: Q01DX005 (ip), vehicle: saline with Tween-80) 118 % of control; under setting [8], 113 % of control.
With `Nc1ccc2c(Cl)cc(Cl)cc2c1`, the T/C is, setting by setting: under setting [4], 100 % of control; under setting [5], 104 % of control.
For `CCc1noc2cc(-c3ccccc3)n(C)c(=O)c12`, the T/C by setting is: under setting [9], 100 % of control; under setting [10], 104 % of control; under setting [11], 105 % of control.
As to `Cc1nn(C(=O)c2cccnc2)c(-c2ccccc2)c1N=Nc1ccc(S(N)(=O)=O)cc1`, the T/C reads like this: (dose: 100.0 mg/kg/injection, schedule: Q04DX002 (ip), vehicle: saline with Tween-80) 90 % of control; (dose: 200.0 mg/kg/injection, schedule: Q04DX002 (ip), vehicle: saline with Tween-80) 90 % of control; (dose: 400.0 mg/kg/injection, schedule: Q04DX002 (ip), vehicle: saline with Tween-80) 95 % of control.
As to `COC(=O)C1=C(C)NC(C)=C(C(=O)OC)C1c1ccc(NC(C)=O)cc1`, the T/C is, setting by setting: under setting [1], 113 % of control; under setting [2], 111 % of control; under setting [3], 113 % of control.
For the molecule `N#Cc1ccc(N)cc1C#N`, the T/C runs as follows: (dose: 50.0 mg/kg/injection, schedule: Q01DX009 (ip), vehicle: Klucel (hydroxypropylcellulose) (HPC)) 94 % of control; (dose: 100.0 mg/kg/injection, schedule: Q01DX009 (ip), vehicle: Klucel (hydroxypropylcellulose) (HPC)) 94 % of control; (dose: 200.0 mg/kg/injection, schedule: Q01DX009 (ip), vehicle: Klucel (hydroxypropylcellulose) (HPC)) 96 % of control.
Take `CCN(CC)CCOCc1cccc2c(=O)cc(-c3ccccc3)oc12`: the T/C under setting [12] is 105 % of control and the T/C under setting [13] is 101 % of control.
Consider `Cc1ccc(S(=O)(=O)N2CCCC2C(=O)NNC(N)=S)cc1` (stereo not given), for which the T/C was 99 % of control under setting [9], 89 % of control under setting [10] and 91 % of control under setting [11].
In the case of `Cc1ccc(NC(=O)N2CCOCC2)cc1NC(=O)N1CCOCC1`, the T/C is 100 % of control under setting [12] and 91 % of control under setting [13].
For the molecule `Clc1ccc(N=Cc2ccc(C=Nc3ccc(Cl)cc3)cc2)cc1`, the T/C by setting is: (dose: 6.25 mg/kg/injection, schedule: Q01DX009 (ip), vehicle: Klucel (hydroxypropylcellulose) (HPC)) 94 % of control; (dose: 12.5 mg/kg/injection, schedule: Q01DX009 (ip), vehicle: Klucel (hydroxypropylcellulose) (HPC)) 91 % of control; (dose: 25.0 mg/kg/injection, schedule: Q01DX009 (ip), vehicle: Klucel (hydroxypropylcellulose) (HPC)) 94 % of control.
For the molecule `Cn1c(Cl)c(/C=N\Nc2ccc([N+](=O)[O-])cc2)c2ccccc21`, the T/C is 89 % of control (dose: 50.0 mg/kg/injection, schedule: Q01DX001 (ip), vehicle: Klucel (hydroxypropylcellulose) (HPC)); 89 % of control (dose: 100.0 mg/kg/injection, schedule: Q01DX001 (ip), vehicle: Klucel (hydroxypropylcellulose) (HPC)); 100 % of control (dose: 200.0 mg/kg/injection, schedule: Q01DX001 (ip), vehicle: Klucel (hydroxypropylcellulose) (HPC)).
In the case of `O=C(O)C1CN(C(=O)OCC2c3ccccc3-c3ccccc32)CS1` (stereo not given), the T/C was 94 % of control under setting [8]; 94 % of control (dose: 100.0 mg/kg/injection, schedule: Q01DX005 (ip), vehicle: saline with Tween-80); 92 % of control (dose: 200.0 mg/kg/injection, schedule: Q01DX005 (ip), vehicle: saline with Tween-80).
`CC1CCC2(OC1)OC1C(O)C3C4CCC5CC(OC6OC(CO)C(OC7OC(CO)C(O)C(OC8OCC(O)C(O)C8O)C7OC7OC(CO)C(O)C(OC8OC(CO)C(O)C(O)C8O)C7O)C(O)C6O)C(O)CC5(C)C4CCC3(C)C1C2C` (stereo not given): the T/C is 101 % of control (dose: 0.62 mg/kg/injection, schedule: Q01DX009 (ip), vehicle: saline); 98 % of control (dose: 1.25 mg/kg/injection, schedule: Q01DX009 (ip), vehicle: saline); 93 % of control (dose: 2.5 mg/kg/injection, schedule: Q01DX009 (ip), vehicle: saline); 87 % of control (dose: 5.0 mg/kg/injection, schedule: Q01DX009 (ip), vehicle: saline); 86 % of control (dose: 40.0 mg/kg/injection, schedule: Q01DX009 (ip), vehicle: saline).
As to `CN1C(=O)C2CCC(=O)N2C(=S)N(C)C1=S` (stereo not given), the T/C is 106 % of control under setting [1] and 104 % of control under setting [2].
`C[CH2][Sn][Cl]`: the T/C is, setting by setting: (dose: 6.25 mg/kg/injection, schedule: Q01DX009 (ip), vehicle: saline) 98 % of control; under setting [6], 98 % of control; under setting [7], 91 % of control.
Turning to `CS(=O)CC(=O)c1ccccn1` (stereo not given), the T/C is 106 % of control (dose: 50.0 mg/kg/injection, schedule: Q01DX005 (ip), vehicle: saline); 100 % of control (dose: 100.0 mg/kg/injection, schedule: Q01DX005 (ip), vehicle: saline); 99 % of control (dose: 200.0 mg/kg/injection, schedule: Q01DX005 (ip), vehicle: saline).
On to `NC1(C(=O)O)CCCC1.O.[Cl][Au]`, for which the T/C under setting [1] is 110 % of control.
